Measured values published in the NIST ThermoML archive (doi:10.1021/je900056u).
± gives the expanded uncertainty stated by the source.

How the values were obtained:
[1] = xn = mol fraction of the nth substance listed; details: 101 kPa, Liquid; for speed of sound: Linear variable-path acoustic interferometer; for mass density: Pycnometric method
[2] = 101 kPa, Liquid; for speed of sound: Linear variable-path acoustic interferometer; for mass density: Pycnometric method

CCC(C)=O [butanone] + O=S1(=O)CCCC1
[1], x2 = 0
Details | mass density [kg/m3] | speed of sound [m/s]
303.15 K | 794.6 ± 0.7 | 1178 ± 7
308.15 K | 790.4 ± 0.9 | 1158 ± 7
313.15 K | 783.1 ± 1.1 | 1136 ± 7

CC(=O)CC(C)C [4-methylpentan-2-one] + O=S1(=O)CCCC1
[1], x2 = 0
Details | mass density [kg/m3] | speed of sound [m/s]
303.15 K | 791.7 ± 0.7 | 1175 ± 7
308.15 K | 787.7 ± 0.8 | 1156 ± 7
313.15 K | 782.6 ± 0.8 | 1138 ± 7

O=S1(=O)CCCC1 [sulfolane] + CC(=O)CC(C)C
[1]
Details | mass density, 303.15 K [kg/m3] | mass density, 308.15 K [kg/m3] | mass density, 313.15 K [kg/m3] | speed of sound, 303.15 K [m/s] | speed of sound, 308.15 K [m/s] | speed of sound, 313.15 K [m/s]
x1 = 0.0287 | 803.4 ± 0.7 | 799.3 ± 0.8 | 793.9 ± 0.9 | 1185 ± 7 | 1166 ± 7 | 1147 ± 7
x1 = 0.1852 | 866.6 ± 0.9 | 862.5 ± 0.8 | 856.8 ± 0.8 | 1233 ± 8 | 1215 ± 7 | 1198 ± 7
x1 = 0.3272 | 927.3 ± 0.9 | 923.3 ± 0.9 | 917.6 ± 0.8 | 1281 ± 8 | 1263 ± 8 | 1247 ± 8
x1 = 0.4634 | 989.2 ± 0.9 | 985.1 ± 0.9 | 979.7 ± 0.9 | 1335 ± 8 | 1316 ± 8 | 1300 ± 8
x1 = 0.5671 | 1038.9 ± 0.9 | 1034.6 ± 0.9 | 1029.3 ± 0.9 | 1381 ± 8 | 1361 ± 8 | 1345 ± 8
x1 = 0.6671 | 1088.8 ± 1 | 1083.9 ± 1 | 1078.5 ± 1 | 1426 ± 9 | 1407 ± 9 | 1391 ± 9
x1 = 0.7777 | 1145.1 ± 1 | 1140.7 ± 1.1 | 1134.1 ± 1.1 | 1479 ± 9 | 1463 ± 9 | 1447 ± 9
x1 = 0.8809 | 1198.5 ± 0.9 | 1195.1 ± 1.1 | 1187.8 ± 1.3 | 1530 ± 9 | 1513 ± 9 | 1496 ± 9
x1 = 0.9829 | 1252.3 ± 0.9 | 1249.2 ± 1.1 | 1242.3 ± 1.3 | 1578 ± 10 | 1564 ± 10 | 1550 ± 9
x1 = 1 | 1261.8 ± 1.1 | 1257 ± 1.1 | 1251.6 ± 1.2 | 1588 ± 10 | 1576 ± 10 | 1558 ± 10

O=S1(=O)CCCC1 [sulfolane] + CCC(=O)CC
[1], x1 = 1
Details | mass density [kg/m3] | speed of sound [m/s]
303.15 K | 1261.8 ± 1.1 | 1588 ± 10
308.15 K | 1257 ± 1.1 | 1576 ± 10
313.15 K | 1251.6 ± 1.2 | 1558 ± 10

O=S1(=O)CCCC1 [sulfolane]
[2]
Details | mass density [kg/m3] | speed of sound [m/s]
303.15 K | 1261.8 ± 1.1 | 1588 ± 10
308.15 K | 1257 ± 1.1 | 1576 ± 10
313.15 K | 1251.6 ± 1.2 | 1558 ± 10

CCC(=O)CC [pentan-3-one] + O=S1(=O)CCCC1
[1]
Details | mass density, 303.15 K [kg/m3] | mass density, 308.15 K [kg/m3] | mass density, 313.15 K [kg/m3] | speed of sound, 303.15 K [m/s] | speed of sound, 308.15 K [m/s] | speed of sound, 313.15 K [m/s]
x2 = 0 | 804.5 ± 1.2 | 799.6 ± 1.2 | 794.3 ± 1.2 | 1197 ± 8 | 1179 ± 7 | 1160 ± 7
x2 = 0.0252 | 815.9 ± 1.2 | 811.1 ± 1.2 | 805.8 ± 1.2 | 1208 ± 8 | 1191 ± 8 | 1170 ± 7
x2 = 0.1627 | 878.1 ± 1.2 | 873.1 ± 1.2 | 867.6 ± 1.2 | 1257 ± 8 | 1240 ± 8 | 1218 ± 8
x2 = 0.2922 | 937.4 ± 1.3 | 931.9 ± 1.2 | 926.6 ± 1.2 | 1300 ± 8 | 1283 ± 8 | 1263 ± 8
x2 = 0.4201 | 996.2 ± 1.2 | 991.1 ± 1.2 | 985.6 ± 1.2 | 1345 ± 8 | 1331 ± 8 | 1315 ± 8
x2 = 0.5234 | 1044.1 ± 1.2 | 1039.1 ± 1.2 | 1033.7 ± 1.2 | 1388 ± 9 | 1376 ± 9 | 1361 ± 8
x2 = 0.6292 | 1093.5 ± 1.2 | 1088.4 ± 1.2 | 1083.1 ± 1.2 | 1435 ± 9 | 1421 ± 9 | 1406 ± 9
x2 = 0.7487 | 1149.4 ± 1.2 | 1144.2 ± 1.2 | 1139.3 ± 1.2 | 1490 ± 9 | 1473 ± 9 | 1460 ± 9
x2 = 0.8644 | 1202.8 ± 1 | 1198.1 ± 1.1 | 1193.2 ± 1.2 | 1536 ± 9 | 1520 ± 9 | 1506 ± 9
x2 = 0.9804 | 1253.5 ± 1 | 1250 ± 1.1 | 1244.6 ± 1.2 | 1579 ± 10 | 1566 ± 10 | 1550 ± 9
